Assay results from patent US20250197408A1, “CRYSTALLINE FORMS AND SALTS OF A PI3K INHIBITOR AND METHODS OF MAKING AND METHODS OF USE THEREOF” (Totus Medicines Inc., priority 2022, published 2025).
Converted amounts (≈) assume the structure as drawn.

What was measured:
[1] = Dynamic vapor sorption (DVS) analysis at 25° C.; assay type: physicochemical
Method: In one embodiment, the crystalline forms are characterized by Dynamic Vapor Sorption (DVS). The DVS profile is typically expressed by a diagram plotting the sample relative humidity (RH) versus the change in mass (%). The DVS profile provides information on hygroscopicity of the crystalline form at different RH conditions.
A DVS (dynamic vapor sorption) analysis at 25° C. was carried out on Form A** of Compound I benzenesulfonate salt as shown in FIG. 3D.

[2] = Solubility in 7 aqueous pH buffers and bio-relevant fluids at 37° C. (HPLC of supernatant; residual solids by XRPD); assay type: physicochemical; settings: for solubility at 2 h / solubility at 24 h: thermodynamic from solid
Method: 20 mg of the free base Form A of Compound I was weighed into a 20 mL glass vial. Amounts of the salts equivalent to 20 mg anhydrous free base were weighed into a glass vial. 10 mL of solubility medium was added. The resulting suspensions/solutions were stirred at 37° C. at 400 rpm and sampled at 2 hours and at 24 hours, respectively. The samples were centrifuged at 37° C. at 14,000 rpm for 5 min. Supernatants were analyzed by HPLC and pH meter for solubility and pH value, respectively. Residual solids (wet cakes) from the 24 hours samples were also characterized by XRPD to determine physical form.
Residual solids after the solubility test were analyzed by XRPD.

[3] = ES1, pH 1.2 HCl solution (0.1N), 37° C.
[4] = ES2, pH 4.5 acetate buffer (50 mM), 37° C.
[5] = ES3, pH 6.8 phosphate buffer (50 mM), 37° C.
[6] = ES4, pH 7.4 phosphate buffer (50 mM), 37° C.
[7] = aqueous buffer, ES2, pH 4.5 acetate buffer (50 mM), 37° C.
[8] = aqueous buffer, ES3, pH 6.8 phosphate buffer (50 mM), 37° C.
[9] = aqueous buffer, ES4, pH 7.4 phosphate buffer (50 mM), 37° C.
[10] = simulated gastric fluid, ES1, pH 1.2 HCl solution (0.1N), 37° C.
[11] = simulated gastric fluid, ES5, SGF, pH 2.0, 37° C.

Compound	hygroscopicity / water sorption behavior (DVS) [1]	solid form of the sample after the DVS test [1]	Solubility for 2 h [2, 3] [µg/mL]	pH of supernatant, solubility for 2 h (pH) [2, 3]	Solubility for 24 h [2, 3] [µg/mL]	pH of supernatant, solubility for 24 h (pH) [2, 3]	Solubility for 2 h [2, 4] [µg/mL]	pH of supernatant, solubility for 2 h (pH) [2, 4]	Solubility for 24 h [2, 4] [µg/mL]	pH of supernatant, solubility for 24 h (pH) [2, 4]	pH of supernatant, solubility for 2 h (pH) [2, 5]	pH of supernatant, solubility for 24 h (pH) [2, 5]	pH of supernatant, solubility for 2 h (pH) [2, 6]	pH of supernatant, solubility for 24 h (pH) [2, 6]	pH of supernatant, solubility for 2 h (pH) ([2]; ES5, SGF, pH 2.0, 37° C.)	pH of supernatant, solubility for 24 h (pH) ([2]; ES5, SGF, pH 2.0, 37° C.)	pH of supernatant, solubility for 2 h (pH) ([2]; ES6, FaSSIF-v1, pH 6.5, 37° C.)	pH of supernatant, solubility for 24 h (pH) ([2]; ES6, FaSSIF-v1, pH 6.5, 37° C.)	pH of supernatant, solubility for 2 h (pH) ([2]; ES7, FeSSIF-v1, pH 5.0, 37° C.)	pH of supernatant, solubility for 24 h (pH) ([2]; ES7, FeSSIF-v1, pH 5.0, 37° C.)	other results
C=CC(=O)NCC(=O)N1CCN(Cc2cc3c(N4CCOCC4)nc(-c4cnc(NC(=O)OC)cc4C(F)(F)F)nn3c2)CC1.O=C(O)/C=C\C(=O)O [Form B* of Compound I maleate salt, Methyl (5-(6-((4-(acryloylglycyl)piperazin-1-yl)methyl)-4-morpholinopyrrolo[2,1-f][1,2,4]triazin-2-yl)-4-(trifluoromethyl)pyridin-2-yl) carbamate maleate salt]	nearly monotonic water sorption-desorption behavior depending on RH	still Form B* of Compound I maleate salt	1400	(1.3)	1500	(1.3)	>2000	(4.5)	300	(4.5)	(6.6)	(6.6)	(7.3)	(7.3)	(2.0)	(2.0)	(6.1)	(6.1)	(5.0)	(5.0)	water uptake (DVS) ([1]; from 40% to 90% RH): 2.7%; Solubility for 2 h [2, 5]: 6.6 µg/mL; Solubility for 24 h [2, 5]: 4.7 µg/mL; Solubility for 2 h [2, 6]: 1.5 µg/mL; Solubility for 24 h [2, 6]: 1.4 µg/mL; Solubility for 2 h ([2]; ES5, SGF, pH 2.0, 37° C.): >2000 µg/mL; Solubility for 24 h ([2]; ES5, SGF, pH 2.0, 37° C.): >2000 µg/mL; Solubility for 2 h ([2]; ES6, FaSSIF-v1, pH 6.5, 37° C.): 22.9 µg/mL; Solubility for 24 h ([2]; ES6, FaSSIF-v1, pH 6.5, 37° C.): 16.2 µg/mL; Solubility for 2 h ([2]; ES7, FeSSIF-v1, pH 5.0, 37° C.): 1100 µg/mL; Solubility for 24 h ([2]; ES7, FeSSIF-v1, pH 5.0, 37° C.): 1000 µg/mL
C=CC(=O)NCC(=O)N1CCN(Cc2cc3c(N4CCOCC4)nc(-c4cnc(NC(=O)OC)cc4C(F)(F)F)nn3c2)CC1.O=S(=O)(O)c1ccccc1 [Methyl (5-(6-((4-(acryloylglycyl)piperazin-1-yl)methyl)-4-morpholinopyrrolo[2,1-f][1,2,4]triazin-2-yl)-4-(trifluoromethyl)pyridin-2-yl) carbamate benzenesulfonate salt]	slightly hygroscopic	still the Form A** of Compound I benzenesulfonate salt	300	(1.2)	400	(1.0)	200	(4.5)	300	(4.4)	(6.7)	(6.6)	(7.3)	(7.3)	(2.0)	(1.8)	(6.3)	(6.2)	(5.0)	(4.9)	water uptake (DVS) ([1]; from 40% to 95% RH): about 1.4%; solubility compared among forms ([2]; 37° C., 2 h and 24 h, 7 aqueous pH buffers and bio-relevant fluids): overall lower solubility than that of Form A of Compound I; Solubility for 2 h [2, 5]: 8.5 µg/mL; Solubility for 24 h [2, 5]: 6.9 µg/mL; Solubility for 2 h [2, 6]: 5.7 µg/mL; Solubility for 24 h [2, 6]: 4.1 µg/mL; Solubility for 2 h ([2]; ES5, SGF, pH 2.0, 37° C.): 200 µg/mL; Solubility for 24 h ([2]; ES5, SGF, pH 2.0, 37° C.): 300 µg/mL; Solubility for 2 h ([2]; ES6, FaSSIF-v1, pH 6.5, 37° C.): 19.6 µg/mL; Solubility for 24 h ([2]; ES6, FaSSIF-v1, pH 6.5, 37° C.): 18.6 µg/mL; Solubility for 2 h ([2]; ES7, FeSSIF-v1, pH 5.0, 37° C.): 700 µg/mL; Solubility for 24 h ([2]; ES7, FeSSIF-v1, pH 5.0, 37° C.): 800 µg/mL
C=CC(=O)NCC(=O)N1CCN(Cc2cc3c(N4CCOCC4)nc(-c4cnc(NC(=O)OC)cc4C(F)(F)F)nn3c2)CC1 [Form A of Compound I, methyl (5-(6-((4-(acryloylglycyl)piperazin-1-yl)methyl)-4-morpholinopyrrolo[2,1-f][1,2,4]triazin-2-yl)-4-(trifluoromethyl)pyridin-2-yl) carbamate]	slightly hygroscopic	still the free base Pattern A		(1.2)		(1.0)		(4.5)		(4.4)	(6.8)	(6.7)	(7.5)	(7.4)	(2.0)	(1.9)	(6.5)	(6.5)	(5.0)	(5.0)	water uptake (DVS) ([1]; from 40% to 95% RH): about 1.4%; solubility at 2 h [2, 7]: 200 µg/mL (≈ 317 µM); solubility at 24 h [2, 7]: 300 µg/mL (≈ 475 µM); solubility at 2 h [2, 8]: 2.9 µg/mL (≈ 4.59 µM); solubility at 24 h [2, 8]: 5.1 µg/mL (≈ 8.07 µM); solubility at 2 h [2, 9]: 2.2 µg/mL (≈ 3.48 µM); solubility at 24 h [2, 9]: 3.8 µg/mL (≈ 6.02 µM); solubility at 2 h [2, 10]: 1200 µg/mL (≈ 1900 µM); solubility at 24 h [2, 10]: 1000 µg/mL (≈ 1580 µM); solubility at 2 h [2, 11]: > 2000 µg/mL; solubility at 24 h [2, 11]: > 2000 µg/mL; solubility at 2 h ([2]; ES6, FaSSIF-v1, pH 6.5, 37° C.): 9.4 µg/mL (≈ 14.9 µM); solubility at 24 h ([2]; ES6, FaSSIF-v1, pH 6.5, 37° C.): 11.5 µg/mL (≈ 18.2 µM); solubility at 2 h ([2]; ES7, FeSSIF-v1, pH 5.0, 37° C.): 600 µg/mL (≈ 950 µM); solubility at 24 h ([2]; ES7, FeSSIF-v1, pH 5.0, 37° C.): 600 µg/mL (≈ 950 µM)
